Experimental data: patent US20240254129A1, “HETEROCYCLIC COMPOUNDS AND USES THEREOF” (Kumquat Biosciences Inc., priority 2021, published 2024)
Where two headings read alike, the source gives them in different places.

Experiments:
wildtype Kras / hSOS1 = biological target: T1, wildtype Kras / hSOS1 (Homo sapiens, UniProt P01116); experiment: HTRF assay, wildtype Kras / SOS1 interaction; assay type: binding; conditions: read-out: IC50 against wildtype Kras
T1 construct: made in house; host or cells: E. coli BL21 (DE3)
Outline: (§1)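 GST-tagged K-Ras (mutant or wildtype) with anti-GST-Eu donor was mixed with His-hSOS1 and anti-6His-XL665 acceptor in HEPES pH 7.4 buffer with NaCl, DTT, BSA and Igepal. After ≥10 min, HTRF was read (ex 337 nm, em 620/665 nm); 665/620 ratios gave IC50 from duplicate dilution series.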

[1] = biological target: GST-tagged K-Ras mutant / His-tagged hSOS1 (Homo sapiens, UniProt P01116); experiment: HTRF assay, K-Ras mutant / SOS1 interaction; assay type: binding; conditions: read-out: IC50 against mutant Kras
Outline: as §1

[2] = compound nos. 201-213, general methodology of example 5
[3] = compound nos. 102-196, general methodology of example 5

T1 sequence (P01116 1-188 isoform P01116-2): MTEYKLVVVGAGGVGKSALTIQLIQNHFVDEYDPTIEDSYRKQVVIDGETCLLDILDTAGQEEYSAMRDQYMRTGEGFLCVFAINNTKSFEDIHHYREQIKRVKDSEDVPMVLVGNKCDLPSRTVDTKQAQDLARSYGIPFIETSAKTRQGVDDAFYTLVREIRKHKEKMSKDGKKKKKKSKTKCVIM
Sequence of GST-tagged K-Ras mutant / His-tagged hSOS1 (P01116 whole entry G12D, form open): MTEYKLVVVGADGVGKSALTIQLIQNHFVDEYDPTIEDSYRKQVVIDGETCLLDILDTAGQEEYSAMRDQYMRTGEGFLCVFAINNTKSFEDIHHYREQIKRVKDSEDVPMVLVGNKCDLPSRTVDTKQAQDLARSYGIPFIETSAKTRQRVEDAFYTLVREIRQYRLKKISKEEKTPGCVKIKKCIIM

Structure (SMILES)	IC50 (wildtype Kras / hSOS1; compound nos. 401-703)	IC50 ([1]; compound nos. 401-703)	further results
Nc1nc2c(-c3c(Cl)cc4c(N5CC6CNC(C6)C5)nc(OC[C@@]56CCCN5C[C@H](F)C6)nc4c3F)ccc(F)c2s1 (stereo partly drawn) [Compound 201, 4-(4-(3,6-diazabicyclo[3.2.1]octan-3-yl)-6-chloro-8-fluoro-2-(((2R,7aS)-2-fluorotetrahydro-1H-pyrrolizin-7a(5H)-yl)methoxy)quinazolin-7-yl)-7-fluorobenzo[d]thiazol-2-amine]			IC50 (wildtype Kras / hSOS1; [2]): < 1500 nM; IC50 [1, 2]: < 1500 nM
CN(C)CC1(COc2nc(N3CC4CCC(C3)N4)c3ccc(-c4ccc(F)c5sc(N)nc45)c(F)c3n2)CC1 [Compound 428, 4-(4-(3,8-diazabicyclo-[3.2.1]-octan-3-yl)-2-((1-((dimethylamino)methyl)-cyclopropyl)methoxy)-8-fluoroquinazolin-7-yl)-7-fluorobenzo[d]thiazol-2-amine]	< 500 nM	> 500 nM	
Cc1cc(N)nc(-c2ccc3c(N4CC5CCC(C4)N5)nc(OC[C@@]45CCCN4C[C@H](F)C5)nc3c2F)c1C1CC1 [Compound 648, 6-(4-(3,8-diazabicyclo-[3.2.1]octan-3-yl)-8-fluoro-2-(((2R,7aS)-2-fluorotetra-hydro-1H-pyrrolizin-7a(5H)-yl)methoxy)quinazolin-7-yl)-5-cyclopropyl-4-methyl-pyridin-2-amine]	> 500 nM	> 500 nM	
Oc1cc(-c2c(F)cc3c(N4CC5CCC(C4)N5)nc(OCC45CCCN4CCC5)nc3c2F)c2ccccc2c1 [Compound 669, 4-(4-(3,8-diazabicyclo-[3.2.1]octan-3-yl)-6,8-difluoro-2-((tetrahydro-1H-pyrrolizin-7a(5H)-yl)methoxy)quinazolin-7-yl)naphthalen-2-ol]	> 500 nM	< 500 nM	
Fc1c(-c2cccc3c2CCCS3)c(Cl)cc2c(N3CC4CCC(C3)N4)nc(OC[C@@]34CCCN3C[C@H](F)C4)nc12 [Compound 637, 4-(3,8-diazabicyclo[3.2.1]-octan-3-yl)-6-chloro-8-fluoro-2-(((2R,7aS)-2-fluoro-tetrahydro-1H-pyrrolizin-7a(5H)-yl)methoxy)-7-(thio-chroman-5-yl)quinazoline]	> 500 nM	> 500 nM	
CN1CCC[C@H]1COc1nc(N2CCCCC(O)C2)c2cc(Cl)c(-c3cccc4sc(N)nc34)c(F)c2n1 (stereo partly drawn) [Compound 506, 1-(7-(2-aminobenzo[d]thia-zol-4-yl)-6-chloro-8-fluoro-2-(((S)-1-methylpyrrolidin-2-yl)methoxy)quinazolin-4-yl)azepan-3-ol]	> 500 nM	< 500 nM	
Nc1nc2c(-c3c(Cl)cc4c(N5CCCOCC5)nc(OC[C@@]56CCCN5C[C@H](F)C6)nc4c3F)ccc(F)c2s1 [Compound 154, 4-(6-chloro-8-fluoro-2-(((2R,7aS)-2-fluorotetra-hydro-1H-pyrrolizin-7a(5H)-yl)methoxy)-4-(1,4-oxazepan-4-yl)quin-azolin-7-yl)-7-fluoro-benzo[d]-thiazol-2-amine]			IC50 (wildtype Kras / hSOS1; [3]): < 500 nM; IC50 [1, 3]: < 500 nM
Nc1nc2c(-c3c(Cl)cc4c(N5CCCOC(CO)C5)nc(OCC56CCCN5CCC6)nc4c3F)cccc2s1 (stereo not shown) [Compound 465, (4-(7-(2-aminobenzo[d]-thiazol-4-yl)-6-chloro-8-fluoro-2-((tetrahydro-1H-pyrrolizin-7a(5H)-yl)meth-oxy)quinazolin-4-yl)-1,4-oxazepan-2-yl)methanol]	< 500 nM	< 500 nM	
CN1CCC[C@H]1COc1nc(N2CCCCC(N)C2)c2cc(Cl)c(-c3cccc4sc(N)nc34)c(F)c2n1 (stereo partly drawn) [Compound 442, 4-(4-(3-aminoazepan-1-yl)-6-chloro-8-fluoro-2-(((S)-1-methylpyrrolidin-2-yl)-methoxy)quinazolin-7-yl)-benzo[d]thiazol-2-amine]	< 500 nM	< 500 nM	
Nc1nc2c(-c3c(Cl)cc4c(N5CCNCC(F)(F)C5)nc(OCC56CCCN5C[C@H](F)C6)nc4c3F)cccc2s1 (stereo partly drawn) [Compound 120, 4-(6-chloro-4-(6,6-difluoro-1,4-diazepan-1-yl)-8-fluoro-2-(((2R)-2-fluorotetrahydro-1H-pyrrolizin-7a(5H)-yl)-methoxy)quinazolin-7-yl)-benzo[d]thiazol-2-amine]			IC50 (wildtype Kras / hSOS1; [3]): < 500 nM; IC50 [1, 3]: < 500 nM
Nc1nc2cc(-c3c(Cl)cc4c(N5CC6CCC(C5)N6)nc(OCC56CCCN5CCC6)nc4c3F)ccc2o1 [Compound 502, 5-(4-(3,8-diazabicyclo-[3.2.1]octan-3-yl)-6-chloro-8-fluoro-2-((tetrahydro-1H-pyrrolizin-7a(5H)-yl)meth-oxy)quinazolin-7-yl)benzo-[d]oxazol-2-amine]	> 500 nM	> 500 nM	
Oc1cc(CN2CCc3nc(OCC45CCCN4CCC5)nc(N4CC5CCC(C4)N5)c3CC2)c2ccccc2c1 [Compound 658, 4-((4-(3,8-diazabicyclo-[3.2.1]-octan-3-yl)-2-((tetrahydro-1H-pyrrolizin-7a(5H)-yl)methoxy)-5,6,8,9-tetrahydro-7H-pyrimido-[4,5-d]azepin-7-yl)methyl)-naphthalen-2-ol]	> 500 nM	> 500 nM	
CN1CCC[C@H]1COc1nc(N2CCCC(F)C(F)(F)C2)c2cc(Cl)c(-c3cccc4sc(N)nc34)c(F)c2n1 (stereo partly drawn) [Compound 459, 4-(6-chloro-8-fluoro-2-(((S)-1-methylpyrrolidin-2-yl)-methoxy)-4-(3,3,4-trifluoro-azepan-1-yl)quinazolin-7-yl)benzo[d]thiazol-2-amine]	< 500 nM	< 500 nM	
CN1CCC[C@H]1COc1nc(N2CCCCC(C(N)=O)C2)c2cc(Cl)c(-c3cccc4sc(N)nc34)c(F)c2n1 (stereo partly drawn) [Compound 700, 1-(7-(2-aminobenzo[d]-thiazol-4-yl)-6-chloro-8-fluoro-2-(((S)-1-methyl-pyrrolidin-2-yl)methoxy)-quinazolin-4-yl)azepane-3-carboxamide]	> 500 nM	< 500 nM	
Nc1nc2c(-c3c(Cl)cc4c(N5CCCCC(N)C5)nc(OC[C@@]56CCCN5C[C@H](F)C6)nc4c3F)ccc(F)c2s1 (stereo partly drawn) [Compound 543, 4-(4-(3-aminoazepan-1-yl)-6-chloro-8-fluoro-2-(((2R,7aS)-2-fluorotetra-hydro-1H-pyrrolizin-7a(5H)-yl)methoxy)quinazolin-7-yl)-7-fluorobenzo[d]thiazol-2-amine]	> 500 nM	< 500 nM	
Nc1nc2c(-c3ccc4c(N5C[C@H]6CCNCC[C@H]6C5)nc(OC[C@@]56CCCN5C[C@H](F)C6)nc4c3F)ccc(F)c2s1 [Compound 408, 7-fluoro-4-(8-fluoro-2-(((2R,7aS)-2-fluorotetra-hydro-1H-pyrrolizin-7a(5H)-yl)methoxy)-4-((3aR,8aS)-octahydropyrrolo[3,4-d]-azepin-2(1H)-yl)quinazolin-7-yl)benzo[d]thiazol-2-amine]	< 500 nM	> 500 nM	
CN1CCC[C@H]1COc1nc(N2CCCC(C(N)=O)CC2)c2cc(Cl)c(-c3cccc4sc(N)nc34)c(F)c2n1 (stereo partly drawn) [Compound 427, 1-(7-(2-aminobenzo[d]-thiazol-4-yl)-6-chloro-8-fluoro-2-(((S)-1-methylpyr-rolidin-2-yl)methoxy)quin-azolin-4-yl)azepane-4-carboxamide]	< 500 nM	< 500 nM	
Nc1cc(-c2c(Cl)cc3c(N4CC5CCC(C4)N5)nc(OCC45CCCN4CCC5)nc3c2F)ccc1F [Compound 627, 5-(4-(3,8-diazabicyclo-[3.2.1]octan-3-yl)-6-chloro-8-fluoro-2-((tetrahydro-1H-pyrrolizin-7a(5H)-yl)meth-oxy)quinazolin-7-yl)-2-fluoroaniline]	> 500 nM	> 500 nM	
CN1CCC[C@H]1COc1nc(N2CCCCC(F)(F)C2)c2cc(Cl)c(-c3ccc(F)c4sc(N)nc34)c(F)c2n1 [Compound 108, 4-(6-chloro-4-(3,3-difluoro-azepan-1-yl)-8-fluoro-2-(((S)-1-methylpyrrolidin-2-yl)methoxy)quinazolin-7-yl)-7-fluorobenzo[d]thiazol-2-amine]			IC50 (wildtype Kras / hSOS1; [3]): < 500 nM; IC50 [1, 3]: < 500 nM
Oc1cc(-c2ncc3c(N4C[C@H]5CC[C@@H](C4)N5)nc(OC[C@@]45CCCN4C[C@H](F)C5)nc3n2)c2ccccc2c1 [Compound 418, 4-(5-((1R,5S)-3,8-diazabicyclo[3.2.1]octan-3-yl)-7-(((2R,7aS)-2-fluorotetrahydro-1H-pyrrolizin-7a(5H)-yl)methoxy)pyrimido[4,5-d]pyrimidin-2-yl)naphthalen-2-ol]	< 500 nM	> 500 nM	
COc1nc2c(N3CC4CCC(C3)N4)nc(OCC34CCCN3CCC4)nc2cc1-c1cccc2cccc(Cl)c12 [Compound 544, 4-(3,8-diazabicyclo[3.2.1]-octan-3-yl)-7-(8-chloronaph-thalen-1-yl)-6-methoxy-2-((tetrahydro-1H-pyrrolizin-7a(5H)-yl)methoxy)pyrido-[3,2-d]pyrimidine]	> 500 nM	> 500 nM	
Fc1c(-c2cccc3scc(Cl)c23)c(Cl)cc2c(N3CC4CCC(C3)N4)nc(OC[C@@]34CCCN3C[C@H](F)C4)nc12 [Compound 423, 4-(3,8-diazabicyclo[3.2.1]-octan-3-yl)-6-chloro-7-(3-chlorobenzo[b]thiophen-4-yl)-8-fluoro-2-(((2R,7aS)-2-fluorotetrahydro-1H-pyrrolizin-7a(5H)-yl)meth-oxy)quinazoline]	< 500 nM	> 500 nM	
CN1CCC[C@H]1COc1nc(N2CCCC(C(N)=O)CC2)c2cc(Cl)c(-c3cccc4sc(N)nc34)c(F)c2n1 (stereo partly drawn) [Compound 581, 1-(7-(2-aminobenzo[d]-thiazol-4-yl)-6-chloro-8-fluoro-2-(((S)-1-methyl-pyrrolidin-2-yl)methoxy)-quinazolin-4-yl)azepane-4-carboxamide]	> 500 nM	< 500 nM	
